14 compounds from patent US8044208B2 (Sanofi-Aventis, priority 2005, dated 2011) can be followed below.

Structures are written as SMILES.

The assay has as its target T1, TAFIa (Homo sapiens, UniProt Q96IY4).
T1 construct: purchased American Diagnostica 874TAFIA
T1 sequence (Q96IY4 115-423): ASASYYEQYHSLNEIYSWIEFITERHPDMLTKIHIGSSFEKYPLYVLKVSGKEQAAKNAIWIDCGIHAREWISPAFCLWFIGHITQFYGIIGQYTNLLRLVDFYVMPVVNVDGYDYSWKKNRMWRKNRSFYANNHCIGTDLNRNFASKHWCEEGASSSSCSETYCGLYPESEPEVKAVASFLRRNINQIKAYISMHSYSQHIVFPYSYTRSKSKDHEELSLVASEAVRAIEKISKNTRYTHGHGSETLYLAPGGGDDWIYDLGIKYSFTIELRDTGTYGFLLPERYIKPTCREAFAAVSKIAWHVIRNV
In words: TAFIa enzyme assay (Actichrome plasma TAFI activity kit). The class given is biochemical. The following applies: 15 min preincubation at room temperature, read at 420 nm, duplicate determination. On the procedure: The prepared substances were tested for TAFIa inhibition using the Actichrome plasma TAFI activity kit from American Diagnostica (Pr. No. 874). This entailed adding 29 μl of assay buffer (20 mM Hepes, 150 mM NaCl, pH 7.4) and 10 μl of TAFIa (American Diagnostica Pr. No. 874TAFIA; […]) to 1 μl of 5 mM DMSO solution of the substance and incubating in a 96 half-well microtiter plate at room temperature for 15 minutes. The enzymic reaction was started by adding 10 μl of TAFIa developer (prediluted 1:2 with water). The time course of the reaction was followed at 420 nm in a microtiter plate reader (SpectraMax plus 384; Molecular Devices) for 15 minutes. The IC50 values were calculated from the averaged values (duplicate determination) of serial dilutions of the substance with the aid of the Software Grafit 4 (Erithacus Software, UK).
For `Nc1ccc(C[C@H](C(=O)O)c2cn(Cc3cc(-c4ccc(Cl)s4)on3)cn2)cn1` [Example 58, (S)-3-(6-Aminopyridin-3-yl)-2-{1-[5-(5-chlorothiophen-2-yl)isoxazol-3-ylmethyl]-1H-imidazol-4-yl}propionic acid], the half-inhibitory concentration (IC50) (in general, the point on the concentration scale where inhibition reaches its midpoint) was 4 nM.
The result for `Cc1nc(-c2cc(Cn3cnc(C(Cc4ccc(N)nc4)C(=O)O)c3)no2)cs1` (centres unmarked) [Example 18, 3-(6-Aminopyridin-3-yl)-2-{1-[5-(2-methylthiazol-4-yl)isoxazol-3-ylmethyl]-1H-imidazol-4-yl}propionic acid] reads 326 nM; that for `Cc1cc(CC(C(=O)O)c2cn(Cc3nnc(C4CC4)s3)cn2)cnc1N` (centres unmarked) [Example 61, 3-(6-Amino-5-methylpyridin-3-yl)-2-[1-(5-cyclopropyl-[1,3,4]thiadiazol-2-ylmethyl)-1H-imidazol-4-yl]propionic acid], 26 nM.
`COc1ccc(-c2cc(Cn3cnc(C(Cc4ccc(N)nc4)C(=O)O)c3)no2)cc1` (centres unmarked) [Example 5, 3-(6-Aminopyridin-3-yl)-2-{1-[5-(4-methoxyphenyl)isoxazol-3-ylmethyl]-1H-imidazol-4-yl}propionic acid] came in with a 50% inhibitory concentration (IC50) of 104 nM.
On to `Nc1ccc(CC(C(=O)O)c2cn(Cc3cc(-c4ccc(Cl)s4)on3)cn2)cn1` (centres unmarked) [Example 1, 3-(6-Aminopyridin-3-yl)-2-{1-[5-(5-chlorothiophen-2-yl)isoxazol-3-ylmethyl]-1H-imidazol-4-yl}propionic acid], for which the IC50 turned out to be 41 nM. Compared with the last compound, the IC50 is about 2.5-fold lower.
`Nc1ccc(CC(C(=O)O)c2cn(Cc3nnc(C4CC4)s3)cn2)cn1` (centres unmarked) [Example 12, 3-(6-Aminopyridin-3-yl)-2-[1-(5-cyclopropyl-[1,3,4]thiadiazol-2-ylmethyl)-1H-imidazol-4-yl]propionic acid] returned an IC50 of 30 nM.
Consider `COc1ccc(-c2nc(Cn3cnc(C(Cc4ccc(N)nc4)C(=O)O)c3)no2)cc1` (centres unmarked) [Example 15], for which the half-inhibitory concentration (IC50) was determined as 223 nM.
Compound `CC(C)(C)c1ccc(-c2noc(Cn3cnc(C(Cc4ccc(N)nc4)C(=O)O)c3)n2)cc1` (centres unmarked) [Example 17, 3-(6-Aminopyridin-3-yl)-2-{1-[3-(4′-tert-butylphenyl)-[1,2,4]oxadiazol-5-ylmethyl]-1H-imidazol-4-yl}propionic acid] had an IC50 of 745 nM.
For `COc1ccc(-c2nnc(Cn3cnc(C(Cc4ccc(N)nc4)C(=O)O)c3)s2)cc1` (centres unmarked) [Example 22, 3-(6-Aminopyridin-3-yl)-2-{1-[5-(4-methoxyphenyl)-[1,3,4]thiadiazol-2-ylmethyl]-1H-imidazol-4-yl}propionic acid], the midpoint of inhibition, the IC50, lay at 78 nM.
Regarding `Nc1ccc(CC(C(=O)O)c2cn(Cc3cnc(-c4ccc(Cl)s4)s3)cn2)cn1` (centres unmarked) [Example 3, 3-(6-Aminopyridin-3-yl)-2-{1-[2-(5-chlorothiophen-2-yl)thiazol-5-ylmethyl]-1H-imidazol-4-yl}propionic acid], half-maximal inhibition (IC50) required 326 nM. Against the preceding compound, the IC50 is about 4.2-fold higher.
Then `CC(C)(C)c1nnc(Cn2cnc(C(Cc3ccc(N)nc3)C(=O)O)c2)s1` (centres unmarked) [Example 9, 3-(6-Aminopyridin-3-yl)-2-[1-(5-tert-butyl-[1,3,4]thiadiazol-2-ylmethyl)-1H-imidazol-4-yl]propionic acid], with 169 nM; and `Nc1ccc(CC(C(=O)O)c2cn(Cc3noc(-c4ccc(C(F)(F)F)cc4)n3)cn2)cn1` (centres unmarked) [Example 10, 3-(6-Aminopyridin-3-yl)-2-{1-[5-(4-trifluoromethylphenyl)-[1,2,4]oxadiazol-3-ylmethyl]-1H-imidazol-4-yl}propionic acid], with 258 nM; and `Nc1ccc(CC(C(=O)O)c2cn(Cc3nnc(-c4ccc(Cl)cc4)s3)cn2)cn1` (centres unmarked) [Example 8, 3-(6-Aminopyridin-3-yl)-2-{1-[5-(4-chlorophenyl)-[1,3,4]thiadiazol-2-ylmethyl]-1H-imidazol-4-yl}propionic acid], with 41 nM.
The result for `CCC(C)c1ccc(-c2cc(Cn3cnc(C(Cc4ccc(N)nc4)C(=O)O)c3)no2)cc1` (centres unmarked) [Example 46, 3-(6-Aminopyridin-3-yl)-2-{1-[5-(4-sec-butylphenyl)isoxazol-3-ylmethyl]-1H-imidazol-4-yl}propionic acid] reads 3 nM.
